Values of other authors in patent US20080008798A1, “Salts of astaxathin esters” (priority 2002, published 2008).

How the values were obtained:
[1] = per week; storage of the manufactured feed under ambient conditions
flesh pigmentation = details: feeding non-formulated astaxanthin

contained pigment lost through degradation during storage [1]: about 2%
Structure (SMILES): CC1=C(/C=C/C(C)=C/C=C/C(C)=C/C=C/C=C(C)/C=C/C=C(C)/C=C/C2=C(C)C(=O)[C@@H](O)CC2(C)C)C(C)(C)C[C@H](O)C1=O [astaxanthin]
pigmentation effect (flesh pigmentation): almost no pigmentation effect
